# How the values were obtained:
# [1] = tested on: middle cerebral artery occlusion (MCAO) model; assay: Anti-stroke effect in middle cerebral artery occlusion (MCAO) model, oral administration before inducing stroke; type: in vivo, rats of SD species; conditions: 2 g/kg po; for Infarcted volume (Mean ± standard deviation): negative control 0.45 ± 0.03
# [2] = tested on: mixed culture of nerve cells-glial cells; assay: Protecting effect on NMDA-induced nerve cell death (LDH release); type: cell-based, ICR mouse; conditions: 100 μM NMDA, LDH release after 24 hours
# Procedure, shortened: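 Embryonic day-14 ICR mouse cortical neurons seeded on cortical glia, Ara-C-treated, then exposed at day 12–15 for 20 min to 100 μM NMDA with compound at 1 or 2 μg/mL. LDH released 24 h later measured colorimetrically as a cell-death index.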
# SH-SY5Y cells [3] = assay: Inhibitory effect on ZnSO4-mediated cytotoxicity (MTT assay); type: cell-based, humans; conditions: compound 50 μg/ml; 600 μM zinc sulfate, 24 hours
# Experimental: SH-SY5Y cells were cultured with 3×10^4 cell concentration in 96 well plates, and the compound (50 μg/ml) was treated. After 30 minutes, 600 μM of zinc sulfate was treated to induce toxicity for 24 hours and survival rate of cells was measured by MTT assay.
# [4] = tested on: pentylentetrazole (PTZ)-induced convulsion; assay: Anti-convulsant effect, pentylentetrazole (PTZ) test; type: in vivo; conditions: 10 mg/kg intraperitoneally, PTZ 80 mg/kg subcutaneously; for mortality rate / Induction percentage of convulsion: (animals/total); for mortality rate: negative control 70(17/23); for Induction percentage of convulsion: negative control 100(23/23); for Initiation time of convulsion: negative control 5.0 ± 0.7; for Duration of convulsion: negative control 46.7 ± 3.3
# Procedure, shortened: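 Compound was given intraperitoneally at 10 mg/kg before PTZ challenge. The read-outs were time to convulsion onset, time until convulsions fully disappeared, and mortality.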
# [5] = tested on: superoxide dismutase (SOD); assay: Increase of superoxide dismutase (SOD) activity in mouse brain cells; type: cell-based; conditions: 100 μg/ml
# Experimental: (§1) ROS inhibitory effect of compounds was represented to the dose suppressing 50% of production of reactive oxygen compared to control. […] The activity of superoxide dismutase (SOD) was measured by using a kit acquired in Sigma.
# thoracic aorta of rats = assay: Relaxing effect on thoracic aorta contracted by phenylephrine (organ bath); design: species or system rats of SD species; conditions: 67 μg/mL, phenylephrine 0.5 μM, mean n = 3; for inhibition at 67 µg/mL: Rattus norvegicus, read-out: Relaxation percentage
# Procedure, shortened: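 Thoracic aortic rings (2 mm) from ether-anesthetized male SD rats (250-300 g) were mounted in Krebs buffer gassed with 95% O2/5% CO2 and equilibrated at 1.0 g basal tension for 90 min. After stable contraction with phenylephrine (0.5 μM), compounds were added and relaxation recorded.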
# SH-SY5Y cells [6] = assay: Inhibitory effect on H2O2-mediated cytotoxicity (MTT assay); type: cell-based, humans; conditions: 200 μM hydrogen peroxide, 24 hours
# Experimental: SH-SY5Y cells that are oriented by nerve cell line from humans were cultured with 3×10^4 cell concentration in 96 well plate, and the sample was treated. After 30 minutes, 200 μM hydrogen peroxide was treated to induce toxicity for 24 hours. After the reaction was completed, the survival rate of cells was measured by MTT assay.
# mouse brain cells = assay: Inhibitory effect on ROS production in brain cells (DCF-DA, NMDA-induced); type: cell-based; conditions: dose suppressing 50% of production of reactive oxygen compared to control, mouse brain cells
# Experimental: Oxidative stress was measured to test inhibitory effects on the production of reactive oxygen species (ROS) by using DCF-DA, which is a fluorescent probe. Brain cells were obtained from brain cortex of mouse to prepare cell solution with 2×10^6 cells/ml. Each brain cell was treated with 11 μM of DCF-DA followed by reaction in 37° C., 5% CO2 incubator for an hour. After washing twice, Compound 3 was treated with a concentration of 125 μg/ml and 250 μg/ml. At the same time, 300 μM of NMDA was treated and it was incubated in 37° C., 5% CO2 incubator for 24 hours.
# as §1
# [7] = treatment time 0 (right before inducing ischemic stroke)
# [8] = treatment time 1 (an hour before inducing ischemic stroke)
Compound,"Inhibitory percentage compared to negative control [1, 7] [%]","Infarcted volume (Mean ± standard deviation) [1, 7] [cm^3]","Inhibitory percentage compared to negative control [1, 8] [%]","Infarcted volume (Mean ± standard deviation) [1, 8] [cm^3]",Inhibitory effect of cell death by NMDA-induced excitable neurotoxicity ([2]; 1 μg/ml compound) [%],Inhibitory effect of cell death by NMDA-induced excitable neurotoxicity ([2]; 2 μg/ml compound) [%],"inhibitory percentage, zinc-induced toxicity (SH-SY5Y cells [3]) [%]",mortality rate [4],Induction percentage of convulsion [4],Initiation time of convulsion [4] [min],Duration of convulsion [4] [min],"Increase of SOD activity, compared to control [5]",inhibition at 67 µg/mL (thoracic aorta of rats) [%],"inhibitory percentage, oxidative toxicity induced by hydroperoxide (SH-SY5Y cells [6]; 5 μg/ml) [%]","inhibitory percentage, oxidative toxicity induced by hydroperoxide (SH-SY5Y cells [6]; 50 μg/ml) [%]","IC50 (mouse brain cells; 24 h, read-out: ROS inhibitory effect ID50) [µg/mL]",ROS inhibitory effect ID50 (mouse brain cells) [µg/mL],Relaxation percentage (thoracic aorta of rats) [%]
"C[N+](C)(C)CCOP(=O)(O)OP(=O)([O-])OC[C@H]1O[C@@H](n2ccc(N)nc2=O)[C@H](O)[C@@H]1O [Citicoline, reference compound]",37.8,0.28 ± 0.04,51.1,0.22 ± 0.03,–,–,–,–,–,–,–,–,–,–,–,–,–,–
"O=c1[nH]c2ccccc2c(=O)n1CCCNCCCCNCCCn1c(=O)[nH]c2ccccc2c1=O [Compound 2, 3-(3-{4-[3-(2,4-dioxo-1,4-dihydro-2H-quinazolin-3-yl)propylamino]butylamino}propyl)-1H-quinazoline-2,4-dione]",–,–,–,–,11.0,0.7,21.7 ± 4.1,67(4/6) %,100(6/6) %,12.9 ± 3.7,35.7 ± 7.1,2.8 ± 4.0,10.9,–,–,–,–,–
"CC(=O)N(CCCCN(CCCn1c(=O)[nH]c2ccccc2c1=O)C(C)=O)CCCn1c(=O)[nH]c2ccccc2c1=O [Compound 4, N-(4-{acetyl-[3-(2,4-dioxo-1,4-dihydro-2H-quinazolin-3-yl)propyl]amino}butyl)-N-[3-(2,4-dioxo-1,4-dihydro-2H-quinazolin-3-yl)propyl]acetamide]",–,–,–,–,22.3,7.4,–,–,–,–,–,0.6 ± 2.2,7.7,2.0 ± 0.4,18.1 ± 2.1,–,–,–
"CS(=O)(=O)N(CCCCNCCCn1c(=O)[nH]c2ccccc2c1=O)CCCn1c(=O)[nH]c2ccccc2c1=O [Compound 12, N-[3-(2,4-dioxo-1,4-dihydro-2H-quinazolin-3-yl)propyl]-N-{4-[3-(2,4-dioxo-1,4-dihydro-2H-quinazolin-3-yl)propylamino]butyl}methansulfonamide]",–,–,–,–,5.7,2.6,12.7 ± 4.3,67(4/6) %,100(6/6) %,13.7 ± 6.2,39.3 ± 8.8,2.8 ± 1.8,10.9,–,–,–,–,–
"O=C1CCC(=O)N1CCCNCCCCNCCCn1c(=O)[nH]c2ccccc2c1=O [Compound 42, 3-(3-{4-[3-(2,5-dioxo-pyrrolidine-1-yl)propylamino]butylamino}propyl)-1H-quinazoline-2,4-dione]",–,–,–,–,24.6,21.8,–,17(1/6) %,100(6/6) %,9.8 ± 4.1,18.2 ± 8.6,1.6 ± 2.6,14.6,–,–,138 ± 21,–,–
"[3-(2,4-dioxo-1,4-dihydro-2H-quinazolin-3-yl)propyl]-{4-[3-(2,4-dioxo-1,4-dihydro-2H-quinazolin-3-yl)propylamino]butyl}heptanoic amide [Compound 35]",–,–,–,–,32.5,35.7,9.1 ± 1.8,33(2/6) %,100(6/6) %,5.4 ± 1.6,33.3 ± 7.3,3.4 ± 7.9,–,–,–,–,140.0 ± 18.6,42.6

# Reference: patent US8404696B2, “Quinazoline-2,4-dione derivative, and medical compositions for the prophylaxis and treatment of cranial nerve disease containing the same” (Shin Poong Pharmaceutical Co., Ltd., priority 2008, dated 2013)
